Data reported in US9079854B2 (priority 2007, dated 2015).
Read-outs that look alike come from different tables or passages of the source.

How the values were obtained:
[1] = molecular target: T1, hCB2 receptor (Homo sapiens, UniProt P34972); assay: CB2 functional assay, [35S]GTP-γ-S binding; assay type: biochemical
T1 construct: purchased ES-111-MG; host or cells: CHO membrane extracts
Procedure: (§1) A dose response curve was generated at eight concentrations in duplicate on CB1 and CB2 in light of reference agonists.
(§2) Membranes (CB1, ES-110-MG or CB2, ES-111-MG) are mixed with GDP (volume:volume) and incubated for at least […] on ice. In parallel, […] are mixed with the beads (volume:volume) just before starting the reaction. The following reagents are successively added in the wells of an Optiplate: 50 μl of ligand, 20 μl of the membranes:GDP mix, 10 μl of assay buffer for agonist testing and 20 μl of the […]: beads mix. The plates are covered with a topseal, shaken on an orbital shaker for 2 min, and then incubated between 30 to 60 min at room temperature. Then the plates are centrifuged for 10 min at 2000 rpm, incubated at room temperature between 1 to 4 hours and counted for 1 min with a PerkinElmer TopCount reader.
(§3) Functional activity for acyl hydrazone was evaluated using [^35S]GTP-γ-S assay in CHO membrane extracts expressing recombinant hCB1 receptor or hCB2 receptor. The assay relies on the binding of [^35S]GTP-γ-S, a radiolabeled nonhydrolyzable GTP analogue, to the G protein upon binding of an agonist of the G-protein-coupled receptor. In this system, agonists stimulate [^35S]GTP-γ-S binding whereas neutral antagonist have no effect and inverse agonists decrease [^35S]GTP-γ-S basal binding.
(§4) CB1 and CB2 assay data are presented as the mean of two determinations. […] For replicate determinations, the maximum variability tolerated in the test was of ±20% around the average of the replicates.

[2] = molecular target: CB1 (Homo sapiens, UniProt P21554); assay: CB1 functional assay, [35S]GTP-γ-S binding; assay type: biochemical; design: purchased ES-110-MG; host or cells: CHO membrane extracts
Chain of CB1 (P21554 whole entry): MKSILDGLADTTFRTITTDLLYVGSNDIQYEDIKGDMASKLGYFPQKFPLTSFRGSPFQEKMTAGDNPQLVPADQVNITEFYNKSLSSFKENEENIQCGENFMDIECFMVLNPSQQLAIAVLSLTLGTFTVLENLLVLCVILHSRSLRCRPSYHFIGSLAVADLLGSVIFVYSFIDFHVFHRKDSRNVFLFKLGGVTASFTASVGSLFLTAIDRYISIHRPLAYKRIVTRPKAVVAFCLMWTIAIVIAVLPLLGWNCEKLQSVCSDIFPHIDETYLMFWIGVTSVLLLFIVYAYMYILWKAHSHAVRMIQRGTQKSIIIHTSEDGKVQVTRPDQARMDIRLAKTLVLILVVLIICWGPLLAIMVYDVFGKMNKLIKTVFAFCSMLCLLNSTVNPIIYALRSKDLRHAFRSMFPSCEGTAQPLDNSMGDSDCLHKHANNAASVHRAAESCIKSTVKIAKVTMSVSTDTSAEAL
Procedure: as §1, §2, §3, §4

[3] = molecular target: T2, human CB1 (hCB1) receptor (Homo sapiens, UniProt P21554); assay: CB1 binding assay, competitive binding of [3H]CP 55940; conditions: at 1 μM; specific binding of [3H]-CP55940; CHO membranes
T2 construct: expressed in transfected cells; host or cells: CHO (Chinese hamster ovary) cells, membranes
T2 sequence (P21554 whole entry): as above
Procedure: Cell membrane homogenates (25 μg protein) are incubated for 120 min at 37° C. with 0.5 nM [^3H]CP 55940 (the reference standard [Rinaldi-Carmona, 1996 #1320]) in the absence or presence of the test compound in a buffer containing 50 mM Tris HCl (pH 7.4), 5 mM MgCl2, 2.5 mM EDTA, and 0.3% bovine serum albumin (BSA). […]
(§5) […] [^3H]-CP55940 at a concentration of 0.5 nM and [^3H]-WIN55212 at a concentration of 0.8 nM were used as radioligands for hCB1 and hCB2 assays, respectively. The results are expressed as a percent inhibition of control specific binding. Compounds which displaced the radioligand by more than 50% for either hCB1 or hCB2 receptors were arbitrary chosen for functional activity determination.

[4] = molecular target: T3, human CB2 (hCB2) receptor (Homo sapiens, UniProt P34972); assay: CB2 binding assay, competitive binding of [3H]WIN 55212-2; conditions: read-out: % inhibition hCB2 receptor, at 1 μM; specific binding of [3H]-WIN55212-2; CHO membranes
T3 construct: expressed in transfected cells; host or cells: CHO (Chinese hamster ovary) cells, membranes
T3 sequence (P34972 whole entry): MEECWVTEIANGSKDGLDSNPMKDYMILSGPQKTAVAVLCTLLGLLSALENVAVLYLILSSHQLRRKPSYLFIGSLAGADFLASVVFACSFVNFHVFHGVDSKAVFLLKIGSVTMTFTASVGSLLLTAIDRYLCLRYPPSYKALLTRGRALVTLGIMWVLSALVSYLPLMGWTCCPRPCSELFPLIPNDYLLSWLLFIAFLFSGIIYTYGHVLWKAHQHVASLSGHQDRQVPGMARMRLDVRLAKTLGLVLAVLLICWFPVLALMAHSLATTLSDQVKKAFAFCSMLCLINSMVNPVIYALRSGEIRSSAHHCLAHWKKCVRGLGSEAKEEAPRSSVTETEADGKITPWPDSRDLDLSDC
Procedure: Cell membrane homogenates (15 μg protein) are incubated for 120 min at 37° C. with 0.8 nM [^3H]WIN 55212-2 (the reference standard [Munro, 1993 #1321]) in the absence or presence of the test compound in a buffer containing 50 mM HEPES/Tris HCL (pH 7.4), 5 mM MgCl2, 2.5 mM EGTA, and 0.1% BSA. Nonspecific binding is determined in the presence of 10 μM WIN 55212-2. After being incubated, the samples are filtered rapidly under vacuum through glass fiber filters (GF/B; Packard) presoaked with 0.3% PEI and rinsed several times with ice-cold buffer containing 50 mM Tris HCl (pH 7.4) and 0.5% BSA using a 96-sample cell harvester (Unifilter; Packard). The filters are dried then counted for radioactivity in a scintillation counter (Topcount; Packard) using a scintillation cocktail (Microscint 0; Packard). The results are expressed as a percentage of the inhibition of the control radioligand-specific binding. The reference standard compounds are tested in each experiment at several concentrations to obtain a competition curve from which its IC50 is calculated.
as §5

[5] = Table 7, relative to the efficacy of CP55940
[6] = Table 9, relative to the efficacy of CP 55,940
[7] = Table 9, mean of two determinations, read-out: [35S]GTP-γ-S hCB2 EC50 (nM ± SEM)
[8] = Table 10, repeated experiment, read-out: [35S]GTP-γ-S hCB2 EC50

T1 sequence (P34972 whole entry): as above

Structure (SMILES) | Emax [1, 6] [%] | EC50 [1, 7] [nM] | inhibition at 1 µM [3] [%] | inhibition at 1 µM [4] [%] | Emax ([1]; Table 10, repeated experiment) [%] | EC50 [1, 8] [nM] | other results
CCCCCCC(C)(C)c1ccc([C@@H]2C[C@H](O)CC[C@H]2CCCO)c(O)c1 [CP55,940, reference compound] | 100 | – | – | – | – | – | Emax [1, 5]: 100%; Emax [2, 5]: 100%; Emax [2, 6]: 100%
CCCN1C(=O)/C(=N\NC(=O)c2ccccc2)c2ccccc21 [Example 21, N′-[(3Z)-1-(1-propyl)-2-oxo-1,2-dihydro-3H-indol-3-ylidene]benzohydrazide] | 61.4 | 200.7 ± 1.5 | 43 ± 1.2 | 32 ± 3.6 | – | – | –
CCCCCCN1C(=O)/C(=N\NC(=O)c2ccccc2)c2cccc(C)c21 [Example 28, N′-[(3Z)-1-hexyl-7-methyl-2-oxo-1,2-dihydro-3H-indol-3-ylidene]benzohydrazide] | 34.2 | 84 ± 2.2 | 67 ± 1.6 | 68 ± 3.7 | – | – | –
CCCCCCN1C(=O)/C(=N\NC(=O)c2ccccc2)c2cccc(Cl)c21 [Example 29, N′-[(3Z)-7-chloro-1-hexyl-2-oxo-1,2-dihydro-3H-indol-3-ylidene]benzohydrazide] | 64.8 | 645.5 ± 1.3 | 60 ± 1 | 29 ± 4.5 | – | – | –
CCCCCCN1C(=O)/C(=N\NC(=O)c2ccccc2)c2cccc(I)c21 [Example 30, N′-[(3Z)-1-hexyl-7-iodo-2-oxo-1,2-dihydro-3H-indol-3-ylidene]benzohydrazide] | – | – | 61 ± 2.5 | 66 ± 3.2 | – | – | Emax at 3 µM ([1]; read-out: [35S]GTP-γ-S hCB2 Emax (%), Table 9 footnote a: Efficacy determined at 3 μM, relative to CP 55,940): 55%
CCCCCCN1C(=O)/C(=N\NC(=O)c2ccccc2)c2cc(F)ccc21 [Example 33, N′-[(3Z)-5-fluoro-1-hexyl-2-oxo-1,2-dihydro-3H-indol-3-ylidene]benzohydrazide] | 33.8 | 186.9 ± 1.7 | 57 ± 0.7 | 46 ± 1.7 | – | – | –
COc1ccc2c(c1)N(CC1CCCCC1)C(=O)/C2=N\NC(=O)c1ccccc1 [Example 37, N′-[(3Z)-1-(cyclohexylmethyl)-6-methoxy-2-oxo-1,2-dihydro-3H-indol-3-ylidene]benzohydrazide] | – | – | – | – | -82 | 18 | Emax ([2]; Table 10, repeated experiment): 40.8%; EC50 ([2]; Table 10, repeated experiment, read-out: [35S]GTP-γ-S hCB1 EC50): 61.2 nM
CCCCCN1C(=O)/C(=N\NC(=O)c2ccccc2)c2ccc(OC)cc21 [Example 39, N′-[(3Z)-6-methoxy-1-pentyl-2-oxo-1,2-dihydro-3H-indol-3-ylidene]benzohydrazide] | – | – | – | – | -108 | 5.8 | –
CCCCN1C(=O)/C(=N\NC(=O)c2ccccc2)c2ccc(OC)cc21 [Example 40, N′-[(3Z)-1-butyl-6-methoxy-2-oxo-1,2-dihydro-3H-indol-3-ylidene]benzohydrazide] | – | – | – | – | -95 | 85 | –
COc1ccc2c(c1)N(CCC1CCCCC1)C(=O)/C2=N\NC(=O)c1ccccc1 [Example 41, N′-[(3Z)-1-(2-cyclohexylethyl)-6-methoxy-2-oxo-1,2-dihydro-3H-indol-3-ylidene]benzohydrazide] | – | – | – | – | -104 | 540 | –
